In publication PMC4245162 (ACS Chemical Biology, 2014):

Target: T1, SETD8 (Homo sapiens, UniProt Q9NQR1)
T1 sequence (Q9NQR1 191-352 isoform Q9NQR1-2): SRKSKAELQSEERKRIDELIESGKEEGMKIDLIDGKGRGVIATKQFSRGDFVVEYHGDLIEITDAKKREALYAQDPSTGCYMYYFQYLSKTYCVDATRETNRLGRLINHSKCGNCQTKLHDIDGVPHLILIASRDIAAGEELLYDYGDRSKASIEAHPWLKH
Test: secondary radiometric filter paper assay, SETD8
Format: biochemical
Conditions: read-out: IC50 against SETD8; apparent IC50; SAM/peptide/enzyme = 0.75:1.5:1

## O=C1C(SCCO)=C(SCCO)C(=O)c2ccccc21 [NSC95397]
  IC50: 82 µM
